Experimental data from ChEMBL document CHEMBL3885881, “DrugMatrix”.

Species: Rattus norvegicus
Experiment: DrugMatrix - Regimen: Daily Repeat
Assay type: toxicity, organism-based, Sprague-Dawley
Set-up: regimen Daily Repeat, gender Male, age 6-8 weeks
Settings: in vivo, po, 0 mg/kg, route oral GAVAGE, dose level Control, […]; for ABSOLUTE BASOPHIL / ABSOLUTE EOSINOPHIL / ABSOLUTE LYMPHOCYTE / ABSOLUTE MONOCYTE / ABSOLUTE SEGMENTED NEUTROPHIL / BASOPHIL / EOSINOPHIL / ERYTHROCYTE COUNT / HEMATOCRIT / HEMOGLOBIN / LEUKOCYTE COUNT / LYMPHOCYTE / MEAN CORPUSCULAR HEMOGLOBIN / MEAN CORPUSCULAR HEMOGLOBIN CONCENTRATION / MEAN CORPUSCULAR VOLUME / MONOCYTE / NEUTROPHIL / NUCLEATED RED BLOOD CELLS / PLATELET COUNT: tissue Blood
[1] = 72 h, tissue Plasma, time 3 day
[2] = 120 h, tissue Plasma, time 5 day

Cc1cccc(C)c1NC(=O)C(C)N (stereo not given) [TOCAINIDE]
ABSOLUTE BASOPHIL (72 h, time 3 day): 0 CELLS/uL | ABSOLUTE EOSINOPHIL (72 h, time 3 day): 41.83 CELLS/uL | ABSOLUTE LYMPHOCYTE (72 h, time 3 day): 8545.5 CELLS/uL | ABSOLUTE MONOCYTE (72 h, time 3 day): 240 CELLS/uL | ABSOLUTE SEGMENTED NEUTROPHIL (72 h, time 3 day): 906 CELLS/uL | BASOPHIL (72 h, time 3 day): 0% | EOSINOPHIL (72 h, time 3 day): 0.33% | ERYTHROCYTE COUNT (72 h, time 3 day): 5.6 x10E6/uL | HEMATOCRIT (72 h, time 3 day): 35.4% | HEMOGLOBIN (72 h, time 3 day): 13.42 G/DL | LEUKOCYTE COUNT (72 h, time 3 day): 9.73 x10E3/uL | LYMPHOCYTE (72 h, time 3 day): 87.83% | MEAN CORPUSCULAR HEMOGLOBIN (72 h, time 3 day): 23.98 pg | MEAN CORPUSCULAR HEMOGLOBIN CONCENTRATION (72 h, time 3 day): 37.92 G/DL | MEAN CORPUSCULAR VOLUME (72 h, time 3 day): 63.3 fL | MONOCYTE (72 h, time 3 day): 2.5% | NEUTROPHIL (72 h, time 3 day): 9.33% | NUCLEATED RED BLOOD CELLS (72 h, time 3 day): 0 /100WBC | PLATELET COUNT (72 h, time 3 day): 1032 x10E3/uL | ALANINE AMINOTRANSFERASE [1]: 72.83 u/L | ALBUMIN [1]: 4 G/DL | ALKALINE PHOSPHATASE [1]: 322.83 u/L | ASPARTATE AMINOTRANSFERASE [1]: 102.67 u/L | BLOOD UREA NITROGEN [1]: 12 mg/dL | CARBON DIOXIDE [1]: 34.33 mmol/L | CHLORIDE [1]: 97.67 MEQ/L | CHOLESTEROL [1]: 82.5 mg/dL | CREATINE PHOSPHOKINASE [1]: 410.33 u/L | CREATININE [1]: 0.18 mg/dL | GLUCOSE [1]: 164.5 mg/dL | LACTATE DEHYDROGENASE [1]: 119.5 u/L | LIPASE [1]: 11.83 u/L | PHOSPHORUS [1]: 9.52 mg/dL | POTASSIUM [1]: 5.56 MEQ/L | SODIUM [1]: 142.48 MEQ/L | TOTAL BILIRUBIN [1]: 0.18 mg/dL | TOTAL PROTEIN [1]: 5.77 G/DL | URIC ACID [1]: 0.48 mg/dL | ABSOLUTE BASOPHIL (120 h, time 5 day): 0 CELLS/uL | ABSOLUTE EOSINOPHIL (120 h, time 5 day): 0 CELLS/uL | ABSOLUTE LYMPHOCYTE (120 h, time 5 day): 9065 CELLS/uL | ABSOLUTE MONOCYTE (120 h, time 5 day): 341.33 CELLS/uL | ABSOLUTE SEGMENTED NEUTROPHIL (120 h, time 5 day): 527 CELLS/uL | BASOPHIL (120 h, time 5 day): 0% | EOSINOPHIL (120 h, time 5 day): 0% | ERYTHROCYTE COUNT (120 h, time 5 day): 5.25 x10E6/uL | HEMATOCRIT (120 h, time 5 day): 34.08% | HEMOGLOBIN (120 h, time 5 day): 13.5 G/DL | LEUKOCYTE COUNT (120 h, time 5 day): 9.93 x10E3/uL | LYMPHOCYTE (120 h, time 5 day): 91.17% | MEAN CORPUSCULAR HEMOGLOBIN (120 h, time 5 day): 25.7 pg | MEAN CORPUSCULAR HEMOGLOBIN CONCENTRATION (120 h, time 5 day): 39.62 G/DL | MEAN CORPUSCULAR VOLUME (120 h, time 5 day): 64.93 fL | MONOCYTE (120 h, time 5 day): 3.33% | NEUTROPHIL (120 h, time 5 day): 5.5% | NUCLEATED RED BLOOD CELLS (120 h, time 5 day): 0 /100WBC | PLATELET COUNT (120 h, time 5 day): 1077.5 x10E3/uL | ALANINE AMINOTRANSFERASE [2]: 57.83 u/L | ALBUMIN [2]: 4.07 G/DL | ALKALINE PHOSPHATASE [2]: 319.17 u/L | ASPARTATE AMINOTRANSFERASE [2]: 83.33 u/L | BLOOD UREA NITROGEN [2]: 13.67 mg/dL | CARBON DIOXIDE [2]: 30.83 mmol/L | CHLORIDE [2]: 98.33 MEQ/L | CHOLESTEROL [2]: 64.83 mg/dL | CREATINE PHOSPHOKINASE [2]: 263.67 u/L | CREATININE [2]: 0.2 mg/dL | GLUCOSE [2]: 182.83 mg/dL | LACTATE DEHYDROGENASE [2]: 124 u/L | LIPASE [2]: 10.5 u/L | PHOSPHORUS [2]: 10 mg/dL | POTASSIUM [2]: 5.78 MEQ/L | SODIUM [2]: 142.48 MEQ/L | TOTAL BILIRUBIN [2]: 0.2 mg/dL | TOTAL PROTEIN [2]: 6 G/DL
